pEC50: −log10 of the molar value. *1 amine or outer side, *2 acyl side, *3 side chain or, on linkers, in order; H or OH if unused. Where a SMILES comes first, the peptide text is derived from it. Side-chain parts run from the residue outwards. [ ]: non-standard residue; d: D form. The star is where a group is joined. γGlu = O=C(O)[C@H](CCC(=O)[*:2])N[*:1]; Palmitoyl = CCCCCCCCCCCCCCCC(=O)*; Aib = CC(C)(N)C(=O)O
Key:
[1] = molecular target: T1, endogenous GLP-1 receptors (Mus musculus, UniProt O35659); experiment: Agonistic activity on endogenous GLP-1 receptor (cAMP, murine insulinoma cell line); format: cell-based; conditions: intracellular cAMP, 15 minutes at 26° C.; read-out: EC50 GLP-1R (murine insulinoma cells)
T1 construct: Agonistic activity of the test compounds on endogenous GLP-1 receptors; endogenous in cells
T1 sequence (O35659 22-463): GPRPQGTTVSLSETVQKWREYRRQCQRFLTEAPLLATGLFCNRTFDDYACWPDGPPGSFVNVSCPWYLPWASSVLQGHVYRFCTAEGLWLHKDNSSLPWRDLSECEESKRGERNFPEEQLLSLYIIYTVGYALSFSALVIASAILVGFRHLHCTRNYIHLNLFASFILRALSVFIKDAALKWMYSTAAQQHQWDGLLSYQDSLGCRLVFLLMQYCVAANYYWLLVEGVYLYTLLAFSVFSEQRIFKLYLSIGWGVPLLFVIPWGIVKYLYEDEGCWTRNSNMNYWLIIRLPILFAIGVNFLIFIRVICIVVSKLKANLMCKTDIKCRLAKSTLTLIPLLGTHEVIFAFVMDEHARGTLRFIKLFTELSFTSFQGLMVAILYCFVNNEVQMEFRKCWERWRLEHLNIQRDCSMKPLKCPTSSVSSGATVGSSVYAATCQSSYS
Summary of the method: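 Murine insulinoma cells were exposed 15 min at 26° C in KRBH with 0.1% DMSO to compound or GLP-1 ([…]), then cAMP was measured by AlphaScreen against a standard curve, in quadruplicate. pEC50 came from curve fits; % CTL was normalised to the maximal GLP-1 cAMP response.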

[2] = molecular target: T2, endogenous glucagon receptor (Rattus norvegicus, UniProt P30082); experiment: Agonistic activity on endogenous glucagon receptor (glycogen synthesis rate in primary rat hepatocytes); format: cell-based; conditions: inhibition of glycogen synthesis rate, 3 hours, read-out: EC50 GLP-1R Rat hepat.
T2 construct: Agonistic activity of the test compounds on endogenous glucagon receptor; endogenous in cells; host or cells: primary rat hepatocytes
Summary of the method: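 Primary rat hepatocytes (40,000 cells/well, cultured 24 h) incubated 3 h with compound in KRBH buffer with 0.1% BSA, 22.5 mM glucose and D-[U14C]glucose. 14C incorporated into precipitated glycogen counted, background-subtracted and expressed as % of 0.1% DMSO vehicle (100% CTL). pEC50 from cpm versus log concentration; agonism lowers glycogen synthesis.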

[3] = Oral glucose tolerance test (OGTT); format: in vivo, C57BL/6J mice; conditions: blood glucose AUC 0-120 min, 10 nmol/kg s.c. 4 h before oral glucose 2 g/kg
Summary of the method: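 Male C57BL/6J mice (n=7) were fasted for 10 h and given peptide at 10 nmol/kg s.c. in phosphate-buffered saline 4 h before an oral glucose bolus of 2 g/kg; controls got vehicle. Tail-blood glucose was read by glucometer up to 120 min, and AUC was computed by the trapezoidal rule without baseline correction.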

T2 sequence (P30082 27-485): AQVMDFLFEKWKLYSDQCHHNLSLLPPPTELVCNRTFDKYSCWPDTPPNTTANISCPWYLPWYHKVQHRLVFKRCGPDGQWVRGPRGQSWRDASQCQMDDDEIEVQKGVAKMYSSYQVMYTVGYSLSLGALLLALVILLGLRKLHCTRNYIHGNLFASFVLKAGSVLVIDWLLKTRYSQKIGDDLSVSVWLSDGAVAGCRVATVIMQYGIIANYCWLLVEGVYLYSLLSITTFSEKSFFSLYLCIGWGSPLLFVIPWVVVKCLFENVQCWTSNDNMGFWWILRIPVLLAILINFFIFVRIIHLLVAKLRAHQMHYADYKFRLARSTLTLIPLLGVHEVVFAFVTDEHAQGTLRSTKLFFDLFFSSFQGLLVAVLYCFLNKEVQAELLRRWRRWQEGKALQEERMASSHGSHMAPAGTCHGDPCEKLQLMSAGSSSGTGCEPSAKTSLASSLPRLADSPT

pEC50 [1] | pEC50 [2] | Structure (SMILES) | AUC (% Ctrl) [3]
8.79 | 9.62 | CCCCCCCCCCCCCCCC(=O)N[C@@H](CCC(=O)NCCCC[C@H](NC(=O)[C@H](CO)NC(=O)[C@H](CC(=O)O)NC(=O)[C@H](CC(C)C)NC(=O)[C@H](Cc1ccc(O)cc1)NC(=O)[C@H](CCCNC(=N)N)NC(=O)[C@H](CO)NC(=O)[C@H](Cc1ccc(O)cc1)NC(=O)[C@H](CC(=O)O)NC(=O)[C@H](CO)NC(=O)[C@@H](NC(=O)[C@H](Cc1ccccc1)NC(=O)[C@@H](NC(=O)CNC(=O)[C@H](CCC(N)=O)NC(=O)[C@H](CO)NC(=O)[C@@H](N)Cc1c[nH]cn1)[C@@H](C)O)[C@@H](C)O)C(=O)N[C@@H](C)C(=O)N[C@@H](C)C(=O)N[C@@H](Cc1c[nH]cn1)C(=O)N[C@@H](CC(=O)O)C(=O)N[C@@H](Cc1ccccc1)C(=O)N[C@H](C(=O)N[C@@H](CCC(=O)O)C(=O)N[C@@H](Cc1c[nH]c2ccccc12)C(=O)N[C@@H](CC(C)C)C(=O)N[C@@H](CC(C)C)C(=O)N[C@@H](CO)C(=O)N[C@@H](C)C(N)=O)C(C)C)C(=O)O [Compound 12, H-HSQGTFTSDYSRYLDS-K(Hexadecanoyl-isoGlu)-AAHDFVEWLLSA-NH2] (H-HSQGTFTSDYSRYLDSK([γGlu-Palmitoyl])AAHDFVEWLLSA-NH2) | 56 % Ctrl
9.48 | 8.73 | CCCCCCCCCCCCCCCC(=O)N[C@@H](CCC(=O)NCCCC[C@H](NC(=O)[C@H](CO)NC(=O)[C@H](CC(=O)O)NC(=O)[C@H](CC(C)C)NC(=O)[C@H](Cc1ccc(O)cc1)NC(=O)[C@H](CCCCN)NC(=O)[C@H](CO)NC(=O)[C@H](Cc1ccc(O)cc1)NC(=O)[C@H](CC(=O)O)NC(=O)[C@H](CO)NC(=O)[C@@H](NC(=O)[C@H](Cc1ccccc1)NC(=O)[C@@H](NC(=O)CNC(=O)[C@H](CCC(N)=O)NC(=O)C(C)(C)NC(=O)[C@@H](N)Cc1c[nH]cn1)[C@@H](C)O)[C@@H](C)O)C(=O)N[C@@H](C)C(=O)N[C@@H](C)C(=O)N[C@@H](CCC(=O)O)C(=O)N[C@@H](CC(=O)O)C(=O)N[C@@H](Cc1ccccc1)C(=O)N[C@H](C(=O)N[C@@H](CCC(=O)O)C(=O)N[C@@H](Cc1c[nH]c2ccccc12)C(=O)N[C@@H](CC(C)C)C(=O)N[C@@H](CCC(=O)O)C(=O)N[C@@H](CO)C(=O)N[C@@H](C)C(N)=O)C(C)C)C(=O)O [Compound 16, H-H-Aib-QGTFTSDYSKYLDS-K(Hexadecanoyl-isoGlu)-AAEDFVEWLESA-NH2] (H-H[Aib]QGTFTSDYSKYLDSK([γGlu-Palmitoyl])AAEDFVEWLESA-NH2) | 44 % Ctrl
8.97 | 9.17 | CCCCCCCCCCCCCCCC(=O)N[C@@H](CCC(=O)NCCCC[C@H](NC(=O)[C@H](CO)NC(=O)[C@H](CC(=O)O)NC(=O)[C@H](CC(C)C)NC(=O)[C@H](Cc1ccc(O)cc1)NC(=O)[C@H](CCCCN)NC(=O)[C@H](CO)NC(=O)[C@H](Cc1ccc(O)cc1)NC(=O)[C@H](CC(=O)O)NC(=O)[C@H](CO)NC(=O)[C@@H](NC(=O)[C@H](Cc1ccccc1)NC(=O)[C@@H](NC(=O)CNC(=O)[C@H](CCC(N)=O)NC(=O)C(C)(C)NC(=O)[C@@H](N)Cc1c[nH]cn1)[C@@H](C)O)[C@@H](C)O)C(=O)N[C@@H](C)C(=O)N[C@@H](C)C(=O)N[C@@H](Cc1c[nH]cn1)C(=O)N[C@@H](CC(=O)O)C(=O)N[C@@H](Cc1ccccc1)C(=O)N[C@H](C(=O)N[C@@H](CCC(=O)O)C(=O)N[C@@H](Cc1c[nH]c2ccccc12)C(=O)N[C@@H](CC(C)C)C(=O)N[C@@H](CC(C)C)C(=O)N[C@@H](CO)C(=O)N[C@@H](C)C(=O)O)C(C)C)C(=O)O [Compound 13, H-H-Aib-QGTFTSDYSKYLDS-K(Hexadecanoyl-isoGlu)-AAHDFVEWLLSA-OH] | 55 % Ctrl
